{
  "source": "patent EP3845222A1",
  "about": "“MICROENCAPSULATED FORMULATION COMPRISING DIOSMIN, TROXERUTIN AND COUMARINS, COMPOSITIONS THEREOF AND USE THEREOF FOR THE TREATMENT OF CIRCULATORY DISORDERS” (Pharma Line S.r.l., priority 2019, dated 2021)",
  "test_system": "ligated saphenous vein (LSV)",
  "experiment": "In vivo ligated saphenous vein damage: histopathological examination (H&E)",
  "parameters": "species or system NMRI mice",
  "settings": "control (non-ligated) mice treated for 7 days; also no signs of tissue inflammation",
  "data": [
    {"smiles": "CCC(C)(C)C(=O)O[C@H]1C[C@@H](C)C=C2C=C[C@H](C)[C@H](CC[C@@H]3C[C@@H](O)CC(=O)O3)[C@H]21", "note": "[Simvastatin]", "values": [
      {"measurement": "changes in the lumen of the vessel", "value": "no significant changes"}
    ]}
  ]
}
